# Values quoted from earlier work as cited in PMC3076957 (Chemico-biological interactions, 2008).
# Key:
# AKR1C3 [1] = biological target: T1, AKR1C3 (Homo sapiens, UniProt P42330); assay: enzyme inhibition assay; settings: read-out: IC50 values (μM) / AKR1C3
# T1 sequence (P42330 1-323): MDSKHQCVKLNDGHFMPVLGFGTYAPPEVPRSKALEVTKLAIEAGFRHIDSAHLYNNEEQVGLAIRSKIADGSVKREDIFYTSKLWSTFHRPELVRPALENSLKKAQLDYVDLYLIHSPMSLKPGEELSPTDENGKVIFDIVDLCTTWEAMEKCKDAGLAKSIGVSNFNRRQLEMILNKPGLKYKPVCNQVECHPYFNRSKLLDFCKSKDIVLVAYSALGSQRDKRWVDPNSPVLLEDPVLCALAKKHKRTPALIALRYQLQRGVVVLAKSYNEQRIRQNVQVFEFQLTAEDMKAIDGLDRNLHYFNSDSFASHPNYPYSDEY
# AKR1C3 [2] = biological target: T1, AKR1C3; assay: inhibition of androstenedione reduction, Lineweaver-Burk; type: biochemical
# AKR1C3 [3] = biological target: T1, AKR1C3; assay: inhibition of […],10-phenanthrenequinone reduction; type: biochemical; settings: read-out: IC50 values (μM) / AKR1C3
# AKR1C2 = AKR1C2 (Homo sapiens, UniProt P52895); settings: read-out: IC50 values (μM) / AKR1C2
# Sequence of AKR1C2 (P52895 whole entry): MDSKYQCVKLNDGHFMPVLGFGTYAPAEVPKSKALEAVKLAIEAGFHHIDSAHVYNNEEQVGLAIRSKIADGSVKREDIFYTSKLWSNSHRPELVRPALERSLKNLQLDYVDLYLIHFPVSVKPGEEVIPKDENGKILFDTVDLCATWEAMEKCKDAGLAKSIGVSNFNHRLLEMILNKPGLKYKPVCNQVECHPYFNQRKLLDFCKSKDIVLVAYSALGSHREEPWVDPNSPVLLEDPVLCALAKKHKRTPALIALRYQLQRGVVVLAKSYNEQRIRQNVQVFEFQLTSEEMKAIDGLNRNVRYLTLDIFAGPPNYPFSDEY
compound,measurement,setting,value
O=C(O)c1ccc(C(=O)c2ccccc2)cc1 [4-Benzoyl-benzoic acid],Ki,AKR1C3 [1],1.9 µM
"O=C(O)c1ccc(Nc2ccc([N+](=O)[O-])cc2[N+](=O)[O-])cc1 [4-Carboxy-2′,4′-dinitrodiphenylamine]",Ki,AKR1C3 [1],0.38 µM
"COc1ccc2c(c1)c(CCNC(C)=O)cn2C(=O)c1ccc(Cl)cc1 [CBM, N-(4-chlorobenzoyl)-melatonin]",Ki,AKR1C3 [2],6000 nM
Cc1ccc(Cl)c(Nc2ccccc2C(=O)O)c1Cl [Meclofenamic Acid],IC50,AKR1C3 [3],0.7 µM
COc1ccc2cc([C@H](C)C(=O)O)ccc2c1 [Naproxen],IC50,AKR1C2,1.2 µM
